Earlier results as cited in patent US10238615B2 (Bracco S.P.A., priority 2011, dated 2019).

- Plasma level of total T3 obtained by standard therapy (20 μg T3): 196.6 ng/dL
- Time of peak level in serum (synthetic T3 once administered): 2 to 3 h
- Time to complete clearance from blood (synthetic T3 once administered): 12 to 24 h
SMILES: N[C@@H](Cc1cc(I)c(Oc2ccc(O)c(I)c2)c(I)c1)C(=O)O [Example T3, 3,5,3′-triiodothyronine]
- Serum levels of thyreotropic hormone (TSH) (euthyroid rats): significant reduction
